The test system of experiment [1] is Molm13 PPM1D-mutant and Molm13 control single cell clones. Kind of experiment: Immunoblot of whole cell lysates for p53 Ser15 and Chk1 Ser345 phosphorylation. The class given is cell-based, human. The settings on record: Molm13 PPM1D-mutant cells, 1 hour pretreated with GSK2830371, exposed to 400 nM cytarabine. (In general: Immunoblotting shows a protein as a band on a membrane.)

In experiment [2] the test system is Molm13 PPM1D-mutant cells. Nature of the experiment: Quantitative phosphoproteomic analysis (KEGG P53 pathway phosphosites). The class given is cell-based, human. The conditions noted are these: 400 nM AraC + 1 μM GSK2830371, 4 hours. The procedure:
(§1) 72 hour cell viability analysis in Molm13 PPM1D-mutant and control single cell clones after exposure to increasing doses of GSK2830371. FIG. 10F is a graph showing percent Annexin V positive cells in cells treated with PPM1D inhibitor or vehicle. Annexin V staining and flow cytometric analysis of Molm13 PPM1D-mutant and control single cell clones exposed to 3 μM of GSK2830371. *=p<0.05, **=p<0.01, ***=p<0.001
To explore the spectrum of PPM1D targets in hematopoietic cells, a quantitative phosphoproteomic analysis was performed in PPM1D wild-type and mutant cells at baseline and in response to chemotherapy. […] In addition, CDKN1A (p21) was identified as a new DNA damage response target of PPM1D. Based on the peptides with altered phosphorylation in PPM1D-mutant cells, a consensus sequence was identified for the serine-threonine phosphatase activity of PPM1D (FIGS. 9E and 9F). Because many phosphorylation sites are not located on peptides that are detected by mass spectrometry, the consensus sequence was used to predict additional PPM1D targets. Known PPM1D targets, including TP53, CHEK1, CHEK2, ATM, ATR and MDM2, bear the consensus target sequence. In addition, new phosphorylation sites were identified in components of the DNA damage response pathway that are predicted targets of PPM1D based on the consensus sequence. […]

Experiment [3] deals with Molm13 PPM1D-mutant and control single cell clones. Kind of experiment: 72-hour cell viability analysis. The class given is cell-based, human. On the procedure: FIG. 2B provides immunoblots of whole cell lysates from Molm13 control cells (control), PPM1D-mutant pooled clones and PPM1D frame-shift (fs) mutant single cell clones probed with anti-PPM1D and anti-Actin. […] FIG. 2D is a plot depicting viability assays in Molm13 PPM1D-mutant or control single cells clones that were treated with increasing concentrations of cyclophosphamide for 72 hours. FIG. 2E is a plot depicting viability assays in Molm13 PPM1D-mutant or control single cells clones that were treated with increasing concentrations of cisplatin for 72 hours. […] FIG. 2G is a plot depicting flow cytometric readout of competition experiment with 5% pooled Molm13 PPM1D-mutant cells and 95% pooled Molm13 control cells exposed to 350 nM Cyclophosphamide or vehicle for 24 days. FIG. 2H is a plot depicting flow cytometric readout of competition experiment with 5% pooled Molm13 PPM1D-mutant cells and 95% pooled Molm13 control cells exposed to 1 μM Cisplatin or vehicle for 24 days. […] PPM1D and control sgRNAs were identified through their fluorophores.
The line represents the locally weighted scatterplot smoothing (LOESS) of 0.1. […] FIG. 8B is a vector map of the degradation reporter vector, with different PPM1D cDNA constructs inserted. FIG. 8C is a graph showing EGFP/mCherry ratio for Molm13 cells with overexpression of wild type PPM1D, truncated PPM1D or the C-terminal end of PPM1D. FIG. 8D is a graph showing EGFP/mCherry ratio for Molm13 p53^−/− cells with overexpression of wild type PPM1D, truncated PPM1D or the C-terminal end of PPM1D. FIG. 8E is a graph showing EGFP/mCherry ratio in Molm13 cells before and after exposure to MG132 (10 μM, 6 hours), normalized to pre-treatment values. FIG. 8F is a plot showing cell viability analysis in Molm13 control cells (control), Molm13 PPM1D truncating mutant cells (PPM1D mutant) and Molm13 cells with overexpression of wild-type PPM1D (WT overexpression). […] For all experiments the following apply: *=p<0.05, **=p<0.01, ***=p<0.001,****=p<0.0001
as §1
To study the role of PPM1D mutations in chemotherapy resistance, mutations in PPM1D were induced using the CRISPR-Cas9 system. […] Using sequence verified PPM1D mutant (fs) and empty vector control Molm13 cells, the effects of mutant and wild type PPM1D in the response to DNA damaging chemotherapy were analyzed. […] (FIG. 1C).
(§2) To study the sensitivity of PPM1D truncating mutations to chemotherapy exposure, frame-shift mutations were introduced in the PPM1D gene in Molm13 AML cells, which are TP53 wild-type, using CRISPR-Cas9.

For experiment [4], the system named is Molm13 PPM1D-mutant pooled cells and control pooled cells. Kind of experiment: In vitro competition experiment, PPM1D-mutant cells mixed with control cells. The class given is cell-based, human. The conditions noted are these: 1:9 ratio, 100 nM cytarabine plus 100 nM GSK2830371. The procedure:
FIG. 2B provides immunoblots of whole cell lysates from Molm13 control cells (control), PPM1D-mutant pooled clones and PPM1D frame-shift (fs) mutant single cell clones probed with anti-PPM1D and anti-Actin. […] FIG. 2D is a plot depicting viability assays in Molm13 PPM1D-mutant or control single cells clones that were treated with increasing concentrations of cyclophosphamide for 72 hours. FIG. 2E is a plot depicting viability assays in Molm13 PPM1D-mutant or control single cells clones that were treated with increasing concentrations of cisplatin for 72 hours. […] FIG. […] FIG. […] PPM1D and control sgRNAs were identified through their fluorophores.
as §1, §2

Experiment [5] has as its system Molm13 PPM1D-mutant and control single cell clones. Kind of experiment: Annexin V staining and flow cytometric analysis. The class given is cell-based, human. The settings on record: 3 μM of GSK2830371.
From the text: FIG. 9E is a chart depicting the consensus sequence of PPM1D based on substrate analysis of 43 substrate candidates of PPM1D. FIG. 9F depicts 43 potential PPM1D substrate sites on pSer/Thr residues on 25 proteins. […] Only localized sites were considered. Figure discloses SEQ ID NOS 4-20 and 20-31, respectively, in order of appearance. FIG. 9G depicts a schema illustrating the components of the DNA-damage response pathway that are targeted by PPM1D in leukemia cells, based on the results from the phosphoproteomics analysis. Phospho-targets of PPM1D identified by mass spectrometry (FDR<0.1) are shown in bold. Predicted PPM1D target sites that were based on the identified consensus sequence with a glutamine at +1 and >2 acidic residues (p=3.595e-13, Fisher's exact test) are shown in italics.
as §1

Experiment [6] has as its target T1, PPM1D phosphatase (Homo sapiens, UniProt O15297).
T1 sequence (O15297 1-605): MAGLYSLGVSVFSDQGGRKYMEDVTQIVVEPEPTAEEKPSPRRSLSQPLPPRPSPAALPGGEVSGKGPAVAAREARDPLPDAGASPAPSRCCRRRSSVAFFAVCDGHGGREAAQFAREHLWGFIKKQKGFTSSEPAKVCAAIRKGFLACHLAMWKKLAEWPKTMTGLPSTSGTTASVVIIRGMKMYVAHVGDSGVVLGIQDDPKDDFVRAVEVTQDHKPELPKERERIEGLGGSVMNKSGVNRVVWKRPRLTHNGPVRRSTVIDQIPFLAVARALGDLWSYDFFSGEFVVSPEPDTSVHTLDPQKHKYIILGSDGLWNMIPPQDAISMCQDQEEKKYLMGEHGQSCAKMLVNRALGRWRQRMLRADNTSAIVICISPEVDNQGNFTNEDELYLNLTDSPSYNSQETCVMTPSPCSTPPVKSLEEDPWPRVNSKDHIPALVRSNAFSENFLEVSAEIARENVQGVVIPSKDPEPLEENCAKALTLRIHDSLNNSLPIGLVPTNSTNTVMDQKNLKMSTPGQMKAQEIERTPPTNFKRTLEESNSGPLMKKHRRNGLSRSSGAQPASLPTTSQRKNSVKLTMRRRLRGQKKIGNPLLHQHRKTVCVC
The conditions noted are these: Gilmartin et al. 2014; cited from earlier work.

“Also recorded” adds a separate entry of the source.

As to `Cc1ncc(Cl)cc1NCc1ccc(C(=O)N[C@@H](CC2CCCC2)C(=O)NC2CC2)s1` [GSK2830371], the “p53 Ser15 phosphorylation with PPM1D inhibitor” value is recorded as “increased the phosphorylation of p53” in experiment [1] and “increased p53 Ser15 phosphorylation” in experiment [1] (listed as GKS2830371). Also, in experiment [2], the “aberrant phosphorylation pattern of PPM1D-mutant cells in response to chemotherapy” value is on record as “reversed the aberrant PPM1D mutant phosphorylation pattern; also recorded: complete reversal of the aberrant phosphorylation pattern”. In addition, the “sensitivity of PPM1D-mutant cells versus control cells to single agent PPM1D inhibitor, cell viability” value in experiment [3] (72 hour, increasing doses) was “PPM1D mutant cells had an increased sensitivity; also recorded: increased sensitivity to single agent PPM1D inhibitor treatment when compared to control cells; also recorded: increased sensitivity to PPM1D inhibition with either compound in comparison to wild type control cells; also recorded: selectively kills PPM1D-mutant cells”. In addition, in experiment [3] (pre-treated 1 hour with 3 μM GSK2830371, 72-hour cytarabine treatment), the “sensitivity of PPM1D-mutant cells to cytarabine when combined with PPM1D inhibitor” value is recorded as “increased the sensitivity of Molm13 PPM1D-mutant cells to cytarabine; also recorded: reverses the chemotherapy resistance phenotype”. The “competitive advantage of PPM1D-mutant cells during cytarabine plus PPM1D inhibitor” value in experiment [4] is “reversed the competitive advantage of PPM1D mutant cells; also recorded: could be reversed”. Further, in experiment [5], the “sensitivity of PPM1D-mutant cells versus control cells to single agent PPM1D inhibitor, Annexin V staining” value is listed as “increased sensitivity to single agent PPM1D inhibitor treatment when compared to control cells”. In addition, the “selectivity for the PPM1D phosphatase” value in experiment [6] was “highly selective for the PPM1D phosphatase”.
